How the values were obtained:
[1] = tested on: HCV genotype 1a (H77 strain) replicon in HUH-7 cells; assay: HCV replicon luciferase reporter assay, genotype 1a; assay type: cell-based; details: Hepatitis C virus, Huh-7, 72 h, HCV genotype 1a replicon luciferase assay, 3 days incubation, range class, read-out: LE_1a (EC50, range)
How it was run: (§1)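 Replicon inhibition for both genotypes was measured as Renilla luciferase signal (EnduRen, 7.5 μM final, 2 h) after 3-day, 37° C exposure of replicon-bearing HUH-7 cells in 4% FCS DMEM, 0.5% DMSO. The 1b construct carries S1179I; the 1a H77 construct carries P1496L and S2204I. Twenty-point, 3-fold dilutions were fitted four-parametrically for EC50, and CC50 was taken from multiplexed Cell Titer-Blue.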

[2] = tested on: HCV genotype 1b (Con1) replicon in HUH-7 cells; assay: HCV replicon luciferase reporter assay, genotype 1b; assay type: cell-based; details: Hepatitis C virus, Huh-7, 72 h, HCV genotype 1b replicon luciferase assay, 3 days incubation, range class, read-out: LE_1b (EC50, range)
How it was run: as §1

Row | SMILES | EC50 [1] [nM] | EC50 [2] [nM]
1 | CC(C)Oc1cc2c(Cl)cccc2c(O[C@@H]2C[C@H]3C(=O)N[C@]4(C(=O)NS(=O)(=O)C5(C)CC5)C[C@H]4/C=C\CC[C@H](C)C[C@@H](C)[C@H](NC(=O)OC(C)(C)C)C(=O)N3C2)n1 [Compound 1089, tert-butyl ((2R,6S,7R,9S,13aS,14aR,16aS,Z)-2-((5-chloro-3-isopropoxyisoquinolin-1-yl)oxy)-7,9-dimethyl-14a-(((1-methylcyclopropyl)sulfonyl)carbamoyl)-5,16-dioxo-1,2,3,5,6,7,8,9,10,11,13a,14,14a,15,16,16a-hexadecahydrocyclopropa[e]pyrrolo[1,2-a][1,4]diazacyclopentadecin-6-yl)carbamate] | 4.82 to 103 | < 5.46
2 | CC(C)Oc1cc2c(Cl)cccc2c(O[C@@H]2C[C@H]3C(=O)N[C@]4(C(=O)NS(=O)(=O)C5(C)CC5)C[C@H]4/C=C\CC[C@@H](C)C[C@@H](C)[C@H](NC(=O)OC(C)(C)C)C(=O)N3C2)n1 [Compound 1090, tert-butyl ((2R,6S,7R,9R,13aS,14aR,16aS,Z)-2-((5-chloro-3-isopropoxyisoquinolin-1-yl)oxy)-7,9-dimethyl-14a-(((1-methylcyclopropyl)sulfonyl)carbamoyl)-5,16-dioxo-1,2,3,5,6,7,8,9,10,11,13a,14,14a,15,16,16a-hexadecahydrocyclopropa[e]pyrrolo[1,2-a][1,4]diazacyclopentadecin-6-yl)carbamate] | < 5.46 | < 5.46
3 | CC(C)Oc1cc2c(Cl)cccc2c(O[C@@H]2C[C@H]3C(=O)N[C@]4(C(=O)NS(=O)(=O)C5CC5)C[C@H]4/C=C\CC[C@H](C)C[C@@H](C)[C@H](NC(=O)OC(C)(C)C)C(=O)N3C2)n1 [Compound 1091, tert-butyl ((2R,6S,7R,9S,13aS,14aR,16aS,Z)-2-((5-chloro-3-isopropoxyisoquinolin-1-yl)oxy)-14a-((cyclopropylsulfonyl)carbamoyl)-7,9-dimethyl-5,16-dioxo-1,2,3,5,6,7,8,9,10,11,13a,14,14a,15,16,16a-hexadecahydrocyclopropa[e]pyrrolo[1,2-a][1,4]diazacyclopentadecin-6-yl)carbamate] | 4.82 to 103 | < 5.46
4 | CC(C)Oc1cc2c(Cl)cccc2c(O[C@@H]2C[C@H]3C(=O)N[C@]4(C(=O)NS(=O)(=O)C5CC5)C[C@H]4/C=C\CC[C@@H](C)C[C@@H](C)[C@H](NC(=O)OC(C)(C)C)C(=O)N3C2)n1 [Compound 1092, tert-butyl ((2R,6S,7R,9R,13aS,14aR,16aS,Z)-2-((5-chloro-3-isopropoxyisoquinolin-1-yl)oxy)-14a-((cyclopropylsulfonyl)carbamoyl)-7,9-dimethyl-5,16-dioxo-1,2,3,5,6,7,8,9,10,11,13a,14,14a,15,16,16a-hexadecahydrocyclopropa[e]pyrrolo[1,2-a][1,4]diazacyclopentadecin-6-yl)carbamate] | < 5.46 | < 5.46
5 | CC(C)Oc1cc2c(Cl)cccc2c(O[C@@H]2C[C@H]3C(=O)N[C@]4(C(=O)NS(=O)(=O)C5CC5)C[C@H]4/C=C\CC[C@H](C)C[C@@H](C)[C@H](NC(=O)OC(C)(C)C(F)(F)F)C(=O)N3C2)n1 [Compound 1093, 1,1,1-trifluoro-2-methylpropan-2-yl((2R,6S,7R,9S,13aS,14aR,16aS,Z)-2-((5-chloro-3-isopropoxyisoquinolin-1-yl)oxy)-14a-((cyclopropylsulfonyl)carbamoyl)-7,9-dimethyl-5,16-dioxo-1,2,3,5,6,7,8,9,10,11,13a,14,14a,15,16,16a-hexadecahydrocyclopropa[e]pyrrolo[1,2-a][1,4]diazacyclopentadecin-6-yl)carbamate] | 4.82 to 103 | < 5.46
6 | CC(C)Oc1cc2c(Cl)cccc2c(O[C@@H]2C[C@H]3C(=O)N[C@]4(C(=O)NS(=O)(=O)C5CC5)C[C@H]4/C=C\CC[C@@H](C)C[C@@H](C)[C@H](NC(=O)OC(C)(C)C(F)(F)F)C(=O)N3C2)n1 [Compound 1094, 1,1,1-trifluoro-2-methylpropan-2-yl((2R,6S,7R,9R,13aS,14aR,16aS,Z)-2-((5-chloro-3-isopropoxyisoquinolin-1-yl)oxy)-14a-((cyclopropylsulfonyl)carbamoyl)-7,9-dimethyl-5,16-dioxo-1,2,3,5,6,7,8,9,10,11,13a,14,14a,15,16,16a-hexadecahydrocyclopropa[e]pyrrolo[1,2-a][1,4]diazacyclopentadecin-6-yl)carbamate] | < 5.46 | < 5.46
7 | C[C@H]1CC/C=C\[C@@H]2C[C@@]2(C(=O)NS(=O)(=O)C2CC2)NC(=O)[C@@H]2C[C@@H](Oc3nc(OCC(F)F)cc4c(Cl)cccc34)CN2C(=O)[C@@H](NC(=O)OC(C)(C)C(F)(F)F)[C@H](C)C1 [Compound 1095, 1,1,1-trifluoro-2-methylpropan-2-yl((2R,6S,7R,9S,13aS,14aR,16aS,Z)-2-((5-chloro-3-(2,2-difluoroethoxyl)isoquinolin-1-yl)oxy)-14a-((cyclopropylsulfonyl)carbamoyl)-7,9-dimethyl-5,16-dioxo-1,2,3,5,6,7,8,9,10,11,13a,14,14a,15,16,16a-hexadecahydrocyclopropa[e]pyrrolo[1,2-a][1,4]diazacyclopentadecin-6-yl)carbamate] | 4.82 to 103 | < 5.46
8 | C[C@@H]1CC/C=C\[C@@H]2C[C@@]2(C(=O)NS(=O)(=O)C2CC2)NC(=O)[C@@H]2C[C@@H](Oc3nc(OCC(F)F)cc4c(Cl)cccc34)CN2C(=O)[C@@H](NC(=O)OC(C)(C)C(F)(F)F)[C@H](C)C1 [Compound 1096, 1,1,1-trifluoro-2-methylpropan-2-yl((2R,6S,7R,9R,13aS,14aR,16aS,Z)-2-((5-chloro-3-(2,2-difluoroethoxyl)isoquinolin-1-yl)oxy)-14a-((cyclopropylsulfonyl)carbamoyl)-7,9-dimethyl-5,16-dioxo-1,2,3,5,6,7,8,9,10,11,13a,14,14a,15,16,16a-hexadecahydrocyclopropa[e]pyrrolo[1,2-a][1,4]diazacyclopentadecin-6-yl)carbamate] | < 5.46 | < 5.46
9 | C[C@H]1CC/C=C\[C@@H]2C[C@@]2(C(=O)NS(=O)(=O)C2(C)CC2)NC(=O)[C@@H]2C[C@@H](Oc3nc(OCC(F)F)cc4c(Cl)cccc34)CN2C(=O)[C@@H](NC(=O)OC(C)(C)C(F)(F)F)[C@H](C)C1 [Compound 1097, 1,1,1-trifluoro-2-methylpropan-2-yl((2R,6S,7R,9S,13aS,14aR,16aS,Z)-2-((5-chloro-3-(2,2-difluoroethoxyl)isoquinolin-1-yl)oxy)-7,9-dimethyl-14a-(((1-methylcyclopropyl)sulfonyl)carbamoyl)-5,16-dioxo-1,2,3,5,6,7,8,9,10,11,13a,14,14a,15,16,16a-hexadecahydrocyclopropa[e]pyrrolo[1,2-a][1,4]diazacyclopentadecin-6-yl)carbamate] | 4.82 to 103 | < 5.46
10 | C[C@@H]1CC/C=C\[C@@H]2C[C@@]2(C(=O)NS(=O)(=O)C2(C)CC2)NC(=O)[C@@H]2C[C@@H](Oc3nc(OCC(F)F)cc4c(Cl)cccc34)CN2C(=O)[C@@H](NC(=O)OC(C)(C)C(F)(F)F)[C@H](C)C1 [Compound 1098, 1,1,1-trifluoro-2-methylpropan-2-yl((2R,6S,7R,9R,13aS,14aR,16aS,Z)-2-((5-chloro-3-(2,2-difluoroethoxyl)isoquinolin-1-yl)oxy)-7,9-dimethyl-14a-(((1-methylcyclopropyl)sulfonyl)carbamoyl)-5,16-dioxo-1,2,3,5,6,7,8,9,10,11,13a,14,14a,15,16,16a-hexadecahydrocyclopropa[e]pyrrolo[1,2-a][1,4]diazacyclopentadecin-6-yl)carbamate] | < 5.46 | < 5.46
11 | C[C@H]1CC/C=C\[C@@H]2C[C@@]2(C(=O)NS(=O)(=O)C2CC2)NC(=O)[C@@H]2C[C@@H](Oc3nc(OCC(F)F)cc4c(Cl)cccc34)CN2C(=O)[C@@H](NC(=O)O[C@H](C)C(F)(F)F)[C@H](C)C1 [Compound 1099, (R)-1,1,1-trifluoropropan-2-yl ((2R,6S,7R,9S,13aS,14aR,16aS,Z)-2-((5-chloro-3-(2,2-difluoroethoxyl)isoquinolin-1-yl)oxy)-14a-((cyclopropylsulfonyl)carbamoyl)-7,9-dimethyl-5,16-dioxo-1,2,3,5,6,7,8,9,10,11,13a,14,14a,15,16,16a-hexadecahydrocyclopropa[e]pyrrolo[1,2-a][1,4]diazacyclopentadecin-6-yl)carbamate] | < 5.46 | < 5.46
12 | C[C@@H]1CC/C=C\[C@@H]2C[C@@]2(C(=O)NS(=O)(=O)C2CC2)NC(=O)[C@@H]2C[C@@H](Oc3nc(OCC(F)F)cc4c(Cl)cccc34)CN2C(=O)[C@@H](NC(=O)O[C@H](C)C(F)(F)F)[C@H](C)C1 [Compound 1100, (R)-1,1,1-trifluoropropan-2-yl ((2R,6S,7R,9R,13aS,14aR,16aS,Z)-2-((5-chloro-3-(2,2-difluoroethoxyl)isoquinolin-1-yl)oxy)-14a-((cyclopropylsulfonyl)carbamoyl)-7,9-dimethyl-5,16-dioxo-1,2,3,5,6,7,8,9,10,11,13a,14,14a,15,16,16a-hexadecahydrocyclopropa[e]pyrrolo[1,2-a][1,4]diazacyclopentadecin-6-yl)carbamate] | < 5.46 | < 5.46
13 | CC(C)Oc1cc2c(Cl)cccc2c(O[C@@H]2C[C@H]3C(=O)N[C@]4(C(=O)NS(=O)(=O)C5(C)CC5)C[C@H]4/C=C\CC[C@H](C)C[C@@H](C)[C@H](NC(=O)OC(C)(C)C(F)(F)F)C(=O)N3C2)n1 [Compound 1101, 1,1,1-trifluoro-2-methylpropan-2-yl((2R,6S,7R,9S,13aS,14aR,16aS,Z)-2-((5-chloro-3-isopropoxyisoquinolin-1-yl)oxy)-7,9-dimethyl-14a-(((1-methylcyclopropyl)sulfonyl)carbamoyl)-5,16-dioxo-1,2,3,5,6,7,8,9,10,11,13a,14,14a,15,16,16a-hexadecahydrocyclopropa[e]pyrrolo[1,2-a][1,4]diazacyclopentadecin-6-yl)carbamate] | 4.82 to 103 | 4.82 to 103

Reference: patent US9499550B2 (BRISTOL-MYERS SQUIBB COMPANY, priority 2012, dated 2016)
